The subject of one assay is HIV. In words: Table 1 IC50 of the examples (assay method not given; patent concerns inhibiting HIV replication). It counts as cell-based.
Conditions: not given
Usually IC50 stands for the concentration that inhibits the measured activity by half. High values mean lower potency, low ones higher potency. As for `COc1c(F)cccc1C(=O)N1CCc2c1cc(C)c([C@H](OC(C)(C)C)C(=O)O)c2-c1cc(F)c2c(c1C)CCCO2` (atropisomer, axis not shown; (P)) [Example 23, (S)-2-(tert-Butoxy)-2-((P)-1-(3-fluoro-2-methoxybenzoyl)-4-(8-fluoro-5-methylchroman-6-yl)-6-methylindolin-5-yl)acetic acid], the IC50 is 95 nM.

The assay is the same for the next values; noted with them: Human immunodeficiency virus 1.
The molecule `Cc1ccc(C(=O)N2CCc3c2cc(C)c([C@H](OC(C)(C)C)C(=O)O)c3-c2cc(F)c3c(c2C)CCCO3)cc1C` (atropisomer, axis not shown) [Example 94, (S)-2-(tert-Butoxy)-2-((R)-1-(3,4-dimethylbenzoyl)-4-(8-fluoro-5-methylchroman-6-yl)-6-methylindolin-5-yl)acetic acid] came in with an IC50 of 4 nM. This lies in the single-digit nanomolar range.

Regarding `COc1cc(C(=O)N2CCc3c2cc(C)c([C@H](OC(C)(C)C)C(=O)O)c3-c2cc(F)c3c(c2C)CCCO3)ccc1C` [Example 71, (S)-2-(tert-Butoxy)-2-((R)-4-(8-fluoro-5-methylchroman-6-yl)-1-(3-methoxy-4-methylbenzoyl)-6-methylindolin-5-yl)acetic acid], the concentration for half-maximal inhibition (IC50) worked out at 4 nM.

For the molecule `Cc1ccc(-c2c3c(cc(C)c2C(OC(C)(C)C)C(=O)O)N(c2ccccc2)CCC3)cc1` (stereo not drawn) [Example 211, 2-(tert-Butoxy)-2-(7-methyl-1-phenyl-5-(p-tolyl)-1,2,3,4-tetrahydroquinolin-6-yl)acetic acid], the IC50 amounted to 10400 nM.

Take `Cc1cc(F)cc(C(=O)N2CCc3c2cc(C)c([C@H](OC(C)(C)C)C(=O)O)c3-c2cc(F)c3c(c2C)CCCO3)c1` (atropisomer, axis not shown) [Example 97, (S)-2-(tert-Butoxy)-2-((R)-1-(3-fluoro-5-methylbenzoyl)-4-(8-fluoro-5-methylchroman-6-yl)-6-methylindolin-5-yl)acetic acid]: the concentration for half-maximal inhibition (IC50) was determined as 6 nM.

As for `Cc1cc2c(c(-c3cc(F)c4c(c3C)CCCO4)c1[C@H](OC(C)(C)C)C(=O)O)CCN2C(=O)c1ccc(F)cc1F` (atropisomer, axis not shown) [Example 60, (S)-2-(tert-Butoxy)-2-((R)-1-(2,4-difluorobenzoyl)-4-(8-fluoro-5-methylchroman-6-yl)-6-methylindolin-5-yl)acetic acid], the midpoint of inhibition, the IC50, lay at 6 nM.

The molecule `Cc1cc2c(c(-c3cc(F)c4c(c3C)CCCO4)c1[C@H](OC(C)(C)C)C(=O)O)CCN2C(=O)c1cncc(F)c1` (atropisomer, axis not shown) [Example 76, (S)-2-(tert-Butoxy)-2-((R)-4-(8-fluoro-5-methylchroman-6-yl)-1-(5-fluoronicotinoyl)-6-methylindolin-5-yl)acetic acid] had an IC50 of 15 nM.

For the molecule `Cc1ccc(-c2c3c(cc(C)c2C(OC(C)(C)C)C(=O)O)N(C2CCCCC2)CC3)cc1` (stereo not drawn) [Example 4, 2-(tert-Butoxy)-2-(1-cyclohexyl-6-methyl-4-(p-tolyl)indolin-5-yl)acetic acid], 7520 nM corresponded to half-maximal inhibition (IC50).

Consider `COc1ccc(C)cc1C(=O)N1c2cc(C)c([C@H](OC(C)(C)C)C(=O)O)c(-c3cc(F)c4c(c3C)CCCO4)c2CC1(C)C` (atropisomer, axis not shown) [Example 205, (S)-2-(tert-Butoxy)-2-((R)-4-(8-Fluoro-5-methylchroman-6-yl)-1-(2-methoxy-5-methylbenzoyl)-2,2,6-trimethylindolin-5-yl)acetic acid], for which the IC50 came to 20 nM. Against the preceding molecule, the IC50 is about 380-fold lower.

Turning to `Cc1cc2c(c(-c3cc(F)c4c(c3C)CCCO4)c1[C@H](OC(C)(C)C)C(=O)O)CCN2C(=O)c1cccc2c1CCCC2` (atropisomer, axis not shown) [Example 59, (S)-2-(tert-Butoxy)-2-((R)-4-(8-fluoro-5-methylchroman-6-yl)-6-methyl-1-(5,6,7,8-tetrahydronaphthalene-1-carbonyl)indolin-5-yl)acetic acid], 6 nM corresponded to half-maximal inhibition (IC50).

Molecule `Cc1cc2c(c(-c3cc(F)c4c(c3C)CCCO4)c1[C@H](OC(C)(C)C)C(=O)O)CCN2C(=O)c1cc(Cl)ccn1` (atropisomer, axis not shown) [Example 103, (S)-2-(tert-Butoxy)-2-((R)-1-(4-chloropicolinoyl)-4-(8-fluoro-5-methylchroman-6-yl)-6-methylindolin-5-yl)acetic acid] showed an IC50 of 16 nM.

For the molecule `Cc1cc(Cl)cc(C(=O)N2CCc3c2cc(C)c([C@H](OC(C)(C)C)C(=O)O)c3-c2cc(F)c3c(c2C)CCCO3)c1` (atropisomer, axis not shown) [Example 141, (S)-2-(tert-Butoxy)-2-((R)-1-(3-chloro-5-methylbenzoyl)-4-(8-fluoro-5-methylchroman-6-yl)-6-methylindolin-5-yl)acetic acid], the IC50 stood at 6 nM.

As to `COc1cc(Cl)ccc1C(=O)N1CCc2c1cc(C)c([C@H](OC(C)(C)C)C(=O)O)c2-c1ccc2c(c1C)CCCO2` (atropisomer, axis not shown) [Example 183, (S)-2-(tert-Butoxy)-2-((R)-1-(4-chloro-2-methoxybenzoyl)-6-methyl-4-(5-methylchroman-6-yl)indolin-5-yl)acetic acid], half-maximal inhibition (IC50) required 4 nM.

Consider `COc1cc(C(=O)N2CCc3c2cc(C)c([C@H](OC(C)(C)C)C(=O)O)c3-c2cc(F)c3c(c2C)CCCO3)cc(F)c1F` (atropisomer, axis not shown) [Example 174, (S)-2-(tert-Butoxy)-2-((R)-1-(3,4-Difluoro-5-methoxybenzoyl)-4-(8-fluoro-5-methylchroman-6-yl)-6-methylindolin-5-yl)acetic acid], for which the IC50 was found to be 6 nM. This IC50 is about 1.5-fold higher than that of the molecule before.

`Cc1cc2c(c(-c3cc(F)c4c(c3C)CCCO4)c1[C@H](OC(C)(C)C)C(=O)O)CCN2C(=O)c1cc2ccccc2[nH]1` (atropisomer, axis not shown) [Example 129, (S)-2-(tert-Butoxy)-2-((R)-4-(8-fluoro-5-methylchroman-6-yl)-1-(1H-indole-2-carbonyl)-6-methylindolin-5-yl)acetic acid] came in with a half-inhibitory concentration (IC50) of 22 nM.

As for `Cc1ccc(-c2c3c(cc(C)c2[C@H](OC(C)(C)C)C(=O)O)N(C(=O)c2cccnc2)CC3)cc1` [Example 39, (S)-2-(tert-Butoxy)-2-(6-methyl-1-nicotinoyl-4-(p-tolyl)indolin-5-yl)acetic acid], it took 27 nM to reach half-maximal inhibition (IC50).

Turning to `COc1ccc(C(=O)N2CCc3c2cc(C)c([C@H](OC(C)(C)C)C(=O)O)c3-c2ccc(C)cc2)cc1` [Example 13, (S)-2-(tert-Butoxy)-2-(1-(4-methoxybenzoyl)-6-methyl-4-(p-tolyl)indolin-5-yl)acetic acid], the midpoint of inhibition, the IC50, lay at 11 nM.

Turning to `Cc1cc2c(c(-c3cc(F)c4c(c3C)CCCO4)c1[C@H](OC(C)(C)C)C(=O)O)CCN2C(=O)C1CCOC1` (stereo partly drawn) [Example 134, (2S)-2-(tert-Butoxy)-2-((4R)-4-(8-fluoro-5-methylchroman-6-yl)-6-methyl-1-(tetrahydrofuran-3-carbonyl)indolin-5-yl)acetic acid], the IC50 came to 453 nM.

`Cc1ccc(C(=O)N2CCc3c2cc(C)c([C@H](OC(C)(C)C)C(=O)O)c3-c2ccc3c(c2C)CCCO3)cn1` (atropisomer, axis not shown) [Example 191, (S)-2-(tert-Butoxy)-2-((R)-6-methyl-4-(5-methylchroman-6-yl)-1-(6-methylnicotinoyl)indolin-5-yl)acetic acid] displayed a half-inhibitory concentration (IC50) of 868 nM.

Molecule `Cc1ccc(-c2c3c(cc(C)c2C(OC(C)(C)C)C(=O)O)N(CC(=O)c2ccccc2)CCC3)cc1` (stereo not drawn) [Example 207, 2-(tert-Butoxy)-2-(7-methyl-1-(2-oxo-2-phenylethyl)-5-(p-tolyl)-1,2,3,4-tetrahydroquinolin-6-yl)acetic acid] came in with an IC50 of 3500 nM.

`Cc1cc2c(c(-c3cc(F)c4c(c3C)CCCO4)c1[C@H](OC(C)(C)C)C(=O)O)CCN2C(=O)c1cc(C(F)(F)F)cc(C(F)(F)F)c1` (atropisomer, axis not shown) [Example 133, (S)-2-((R)-1-(3,5-Bis(trifluoromethyl)benzoyl)-4-(8-fluoro-5-methylchroman-6-yl)-6-methylindolin-5-yl)-2-(tert-butoxy)acetic acid] came in with an IC50 of 67 nM.

As for `Cc1cc2c(ccn2C(=O)c2ccc(F)c(F)c2)c(-c2cc(F)c3c(c2C)CCCO3)c1[C@H](OC(C)(C)C)C(=O)O` (atropisomer, axis not shown) [Example 203, (S)-2-(tert-Butoxy)-2-((R)-1-(3,4-difluorobenzoyl)-4-(8-fluoro-5-methylchroman-6-yl)-6-methyl-1H-indol-5-yl)acetic acid], half-maximal inhibition (IC50) was put at 16 nM.

On to `Cc1cc(C)cc(C(=O)N2CCc3c2cc(C)c([C@H](OC(C)(C)C)C(=O)O)c3-c2cc(F)c3c(c2C)CCCO3)c1` (atropisomer, axis not shown) [Example 77, (S)-2-(tert-Butoxy)-2-((R)-1-(3,5-dimethylbenzoyl)-4-(8-fluoro-5-methylchroman-6-yl)-6-methylindolin-5-yl)acetic acid], for which the IC50 worked out at 5 nM.

`CNC(=O)c1ccc(C(=O)N2CCc3c2cc(C)c([C@H](OC(C)(C)C)C(=O)O)c3-c2cc(F)c3c(c2C)CCCO3)cc1` (atropisomer, axis not shown) [Example 95, (S)-2-(tert-Butoxy)-2-((R)-4-(8-fluoro-5-methylchroman-6-yl)-6-methyl-1-(4-(methylcarbamoyl)benzoyl)indolin-5-yl)acetic acid]: inhibition was half-maximal at 142 nM (IC50).

Molecule `Cc1cc2c(c(-c3cc(F)c4c(c3C)CCCO4)c1[C@H](OC(C)(C)C)C(=O)O)CCN2C(=O)c1ccc(C(F)(F)F)nc1` (atropisomer, axis not shown) [Example 172, (S)-2-(tert-butoxy)-2-((R)-4-(8-fluoro-5-methylchroman-6-yl)-6-methyl-1-(6-(trifluoromethyl)nicotinoyl)indolin-5-yl)acetic acid] returned an IC50 of 6 nM.

`Cc1ccc(-c2c3c(cc(C)c2[C@H](OC(C)(C)C)C(=O)O)N(C(=O)c2cccc(F)c2C)CC3)cc1` [Example 30, (S)-2-(tert-Butoxy)-2-(1-(3-fluoro-2-methylbenzov)-6-methyl-4-(p-tolyl)indolin-5-yl)acetic acid] had an IC50 of 8 nM.

Molecule `COc1ncccc1C(=O)N1CCc2c1cc(C)c([C@H](OC(C)(C)C)C(=O)O)c2-c1cc(F)c2c(c1C)CCCO2` (atropisomer, axis not shown) [Example 90, (S)-2-(tert-Butoxy)-2-((R)-4-(8-fluoro-5-methylchroman-6-yl)-1-(2-methoxynicotinoyl)-6-methylindolin-5-yl)acetic acid] yielded an IC50 of 5 nM.

(Values after patent US20190284136A1, “INDOLINE DERIVATIVES” (ViiV HEALTHCARE UK LIMITED, priority 2016, published 2019).)
